Test results taken from EP4806421A2, “PHARMACEUTICAL COMPOSITIONS OF NANOCRYSTALLIZED XANTHATIN AND USE THEREOF AS AN ANTI-TUMOR AGENT” (Centro de Investigación y Desarrollo de Medicamentos CIDEM, priority 2023, dated 2025).

Legend:
[1] = system: HT-29 human colorectal adenocarcinoma tumor line; assay: Cell cycle progression by flow cytometry (PI/RNase staining); assay type: cell-based; details: HT-29 cells, 10 and 20 µM, 48 h, compared with untreated control and docetaxel 2 µM positive control
Method: Assay to evaluate the in vitro antiproliferative activity of nanocrystallized xanthatin by flow cytometry.
The antiproliferative activity through cell cycling arrest was evaluated in HT-29 cells. Cells were cultured in 6-well plates (2×10^5 and 1×10^5 cells/ml, respectively) until 90% confluence was reached. Three xanthatin samples were evaluated: commercial, laboratory-isolated, and nanocrystallized xanthatin at concentrations of 10 and 20 µM. Prior to treatment, both commercial and isolated xanthatin were dissolved in DMSO, unlike nanocrystallized xanthatin, which was added directly to the cell culture medium. Medium supplemented with 1% FBS was used as the control. Docetaxel 2 µM was used as a positive control for cell cycle arrest in G2/M. The treatments were added to the medium supplemented with 1% FBS on the day after seeding the cells on the plates. The cells were incubated for 48 h upon the treatments, harvested, fixed in 100% ethanol, and stored at -20°C. Cell cycle distribution was next assessed using flow cytometry. On the day of the assay, samples were incubated with a PI/Rnase mixture at room temperature and in the dark for 20 min prior to analysis.

[2] = system: murine U14 cervical carcinoma cells; assay: In vivo antitumor effect of in situ gelation containing xanthatin nanocrystals, tumor implant near the cervix; parameters: species or system female BALB/c mice; details: hydrogel intravaginal 0.850 mg nanocrystallized xanthatin per mouse daily for 5 days, carboplatin i.v. 0.675 mg per mouse for 3 days
Method: Evaluation of the in vivo antitumor effect of in situ gelation containing xanthatin nanocrystals was performed using murine U14 cervical carcinoma cells inoculated into the cervix of female BALB/c mice with an average weights of 22-24 g. Tumor implantation was performed by inoculating the submucosa near the cervix of each animal with 25 µL of cell suspension in PBS, with a total of 4×10^5 cells/mouse. Four randomly distributed groups of 6 animals per group were formed. The treatment schedule was carried out for 5 days with a daily intravaginal infusion of the thermosensitive hydrogel containing the xanthatin nanocrystals (8.5 µL, 0.850 mg of nanocrystallized xanthatin per mouse) and placebo, and for 3 days with a daily intravaginal infusion of […] Tumor weight and tumor inhibition rates were evaluated. Tumor inhibition rate was calculated using the following formula: TIR = (Aw −Ax)/([…]) × 100 [formula]
Where: • TIR means tumor inhibition rate in %. • AW means the average weight of tumors in the control group. • Ax means the average weight of the tumors of the treated group.

[3] = system: HT-29 colorectal adenocarcinoma; assay: MTT reduction assay, cell viability (HT-29); assay type: cell-based, human; details: HT-29 cells, 10 and 20 µM, 24 h, isolated xanthatin dissolved in DMSO, nanocrystals added directly to the medium
Method: (§1) Cell growth inhibition of nanocrystallized xanthatin assessed using the MTT assay.
(§2) The viability of the cultured cells was assessed using the MTT reduction assay. The assay was performed using the method described by Mosmann (1983). HT-29 and HeLa cells were seeded in 96-well plates at 10^4 cells/ml and 5x10^3 cells/ml respectively. The cells were cultured in Dulbecco's modified Eagle's medium (DMEM) supplemented with 10% FBS, 1% glutamine, triple antibiotic (3A), and 25 mM glucose, and maintained at 37°C in a 5% CO2 incubator until 80-90% confluence. After 24h of incubation, to ensure cell adhesion, the medium was removed and different concentrations (10 and 20 µM) of either commercial xanthatin, isolated xanthatin, and xanthatin nanocrystals, or as a negative control medium supplemented with 1% DMSO, were added. Prior to treatment, the commercial and isolated xanthatin samples were dissolved in DMSO, unlike the nanocrystallized xanthatin that was directly added to the cell culture medium. The prepared plates were incubated for 24 h, and 50 µL MTT (5 mg/ml) per well was added to a final concentration of 1 mg/ml. […] Relative cell viability was determined by measuring the absorbance at 540 nm on an ELISA plate reader (Tecan Sunrise MR20-301, TECAN Austria). Absorbance is directly proportional to the level of cell proliferation or viability. […]

[4] = system: HeLa cervical carcinoma tumor lines; assay: MTT reduction assay, cell viability (HeLa); assay type: cell-based, human; details: HeLa cells, 10 and 20 µM, 24 h, isolated xanthatin dissolved in DMSO, nanocrystals added directly to the medium
Method: as §1, §2

C=C1C(=O)O[C@H]2C[C@H](C)C(/C=C/C(C)=O)=CC[C@H]12 [commercial xanthatin, xanthatin]
cell cycle arrest in the G2/M phase [1]: no statistically significant differences

N.N.O=C([O-])C1(C(=O)[O-])CCC1.[Pt+2] [injectable carboplatin, carboplatin]
tumor inhibition rate ([2]; calculated from average tumor weights): 54.4%
tumor weight ([2]; with respect to the placebo and control groups): significant decrease

C=C1C(=O)O[C@H]2C[C@H](C)C(/C=C/C(C)=O)=CC[C@H]12 [laboratory isolated xanthatin, xanthatin]
cell cycle arrest in the G2/M phase ([1]; listed as isolated xanthatin): induced cell cycle arrest in the G2/M phase
viability inhibition [3]: significantly higher than that of commercial xanthatin
viability inhibition [4]: significantly higher than that of commercial xanthatin
